ChEMBL document CHEMBL4334438, “Discovery of novel glycogen synthase kinase-3α inhibitors: Structure-based virtual screening, preliminary SAR and biological evaluation for treatment of acute myeloid leukemia” (Eur J Med Chem, 2019)

Legend:
[1] = biological target: Activin receptor type-1 (Homo sapiens) (UniProt Q04771); assay: Inhibition of human ALK2 (147 to end residues) assessed as residual activity at 1 uM using casein as substrate incubated for 40 mins in presence of [gamma-33ATP] by scintillation counting based radiometry assay relative to control
[2] = test system: CDK18/Cyclin Y (Homo sapiens), Q07002+Q8ND76 [T166M]; assay: Inhibition of recombinant full length human CDK18 /cyclinY T166M mutant assessed as residual activity at 1 uM using YRRAAVPPSPSLS as substrate incubated for 40 mins in presence of [gamma-33ATP] by scintillation counting based radiometry assay relative to control; format: protein-complex assay
[3] = biological target: Epithelial discoidin domain-containing receptor 1 (Homo sapiens) (UniProt Q08345); assay: Inhibition of recombinant human DDR1 (492 to end residues) assessed as residual activity at 1 uM using KKKSPGEYVNIEFG as substrate at 40 mins in presence of [gamma-33ATP] by scintillation counting based radiometry assay relative to control
[4] = biological target: Dual specificity tyrosine-phosphorylation-regulated kinase 3 (Homo sapiens) (UniProt O43781); assay: Inhibition of recombinant human DYRK3 assessed as residual activity at 1 uM using RRRFRPASPLRGPPK as substrate at 40 mins in presence of [gamma-33ATP] by scintillation counting based radiometry assay relative to control
[5] = biological target: Ephrin type-A receptor 2 (Homo sapiens) (UniProt P29317); assay: Inhibition of recombinant human EphA2 (596 to 900 residues) assessed as residual activity at 1 uM using poly(Glu, Tyr) 4:1 as substrate at 40 mins in presence of [gamma-33ATP] by scintillation counting based radiometry assay relative to control
[6] = biological target: Serine/threonine-protein kinase haspin (Homo sapiens) (UniProt Q8TF76); assay: Inhibition of human Haspin (471 to end residues ) assessed as residual activity at 1 uM using RARTLSFAEPG as substrate after 40 mins by [gamma-33ATP] radiometric assay relative to control
[7] = biological target: Mitogen-activated protein kinase kinase kinase kinase 4 (Homo sapiens) (UniProt O95819); assay: Inhibition of recombinant human MAP4K4 (1 to 328 residues) assessed as residual activity at 1 uM using RLGRDKYKTLRQIRQ as substrate incubated for 40 mins in presence of [gamma-33ATP by scintillation counting based radiometry assay relative to control
Homo sapiens [8] = species: Homo sapiens; assay: Inhibition of recombinant human MER H628Q/R794A mutant (557 to 882 residues) assessed as residual activity at 1 uM using GGMEDIYFEFMGGKKK as substrate incubated for 40 mins in presence of [gamma-33ATP by scintillation counting based radiometry assay relative to control
[9] = test system: Hepatocyte growth factor receptor (Homo sapiens), P08581 [M1250T]; assay: Inhibition of recombinant human MET A1209G/V1290L/M1268T mutant (974 to end residues) assessed as residual activity at 1 uM using KKKGQEEEYVFIE as substrate incubated for 40 mins in presence of [gamma-33ATP by scintillation counting based radiometry assay relative to control
[10] = biological target: Dual specificity mitogen-activated protein kinase kinase 3 (Homo sapiens) (UniProt P46734); assay: Inhibition of recombinant human MKK3 assessed as residual activity at 1 uM by scintillation counting based radiometry assay relative to control
[11] = biological target: Muscle, skeletal receptor tyrosine-protein kinase (Homo sapiens) (UniProt O15146); assay: Inhibition of recombinant human MUSK (530 to end residues) assessed as residual activity at 1 uM using myelin basic protein as substrate measured after 40 mins in presence of [gamma33P]ATP by scintillation counting method relative to control
[12] = biological target: Serine/threonine-protein kinase Nek11 (Homo sapiens) (UniProt Q8NG66); assay: Inhibition of recombinant full length human NEK11 assessed as residual activity at 1 uM myelin basic protein as substrate measured after 40 mins in presence of [gamma33P]ATP by scintillation counting method relative to control
[13] = test system: RAC-gamma serine/threonine-protein kinase (Homo sapiens), Q9Y243 [S472D]; assay: Inhibition of recombinant human PKBgamma S472D mutant (117 to end residues) assessed as residual activity at 1 uM using GRPRTSSFAEGKK as substrate incubated for 40 mins in presence of [gamma33P]ATP by scintillation counting based radiometry assay relative to control
[14] = test system: Mitogen-activated protein kinase 14 (Homo sapiens), Q16539 [T106M]; assay: Inhibition of recombinant human full length SAPK2a T106M mutant assessed as residual activity at 1 uM using myelin basic protein as substrate measured after 40 mins in presence of [gamma33P]ATP by scintillation counting method relative to control
[15] = biological target: Mitogen-activated protein kinase 11 (Homo sapiens) (UniProt Q15759); assay: Inhibition of recombinant human full length SAPK2b assessed as residual activity at 1 uM using myelin basic protein as substrate measured after 40 mins in presence of [gamma33P]ATP by scintillation counting method relative to control
[16] = test system: Proto-oncogene tyrosine-protein kinase Src (Homo sapiens), P12931 [T341M]; assay: Inhibition of recombinant full-length human Src T341M mutant at 1 uM assessed as residual activity at 1 uM using GGEEEEYFELVKKKK as substrate measured after 40 mins in presence of [gamma33P]ATP by scintillation counting method relative to control
[17] = biological target: Serine/threonine-protein kinase 16 (Homo sapiens) (UniProt O75716); assay: Inhibition of human STK16 assessed as residual activity at 1 uM by radiometric method relative to control
[18] = biological target: Serine/threonine-protein kinase 32B (Homo sapiens) (UniProt Q9NY57); assay: Inhibition of recombinant full-length human STK32B at 1 uM assessed as residual activity at 1 uM using casein as substrate measured after 120 mins in presence of [gamma33P]ATP by scintillation counting method relative to control
[19] = test system: Dual specificity protein kinase TTK (Homo sapiens), P33981 [S389A]; assay: Inhibition of recombinant full-length human TTK S389A mutant at 1 uM assessed as residual activity at 1 uM using MBP as substrate measured after 40 mins in presence of [gamma33P]ATP by scintillation counting method relative to control
[20] = biological target: Serine/threonine-protein kinase ULK3 (Homo sapiens) (UniProt Q6PHR2); assay: Inhibition of recombinant full-length human ULK3 at 1 uM assessed as residual activity at 1 uM using casein as substrate measured after 40 mins in presence of [gamma33P]ATP by scintillation counting method relative to control
Homo sapiens [21] = species: Homo sapiens; assay: Inhibition of recombinant human full length PI3K p110alpha/p65alpha assessed as residual activity at 1 uM assessed as residual activity at 1 uM using phosphatidylinositol-4, 5-bisphosphate as substrate incubated for 40 mins in presence of [gamma33P]ATP by scintillation counting based radiometry assay relative to control
[22] = biological target: Phosphatidylinositol 5-phosphate 4-kinase type-2 alpha (Homo sapiens) (UniProt P48426); assay: Inhibition of recombinant full-length human PIP4K2alpha at 1 uM assessed as residual activity at 1 uM using phosphatidylinositol 5-phosphate as substrate measured after 40 mins by HTRF assay

Chain of Dual specificity protein kinase TTK (Homo sapiens), P33981 [S389A] (P33981 whole entry S389A): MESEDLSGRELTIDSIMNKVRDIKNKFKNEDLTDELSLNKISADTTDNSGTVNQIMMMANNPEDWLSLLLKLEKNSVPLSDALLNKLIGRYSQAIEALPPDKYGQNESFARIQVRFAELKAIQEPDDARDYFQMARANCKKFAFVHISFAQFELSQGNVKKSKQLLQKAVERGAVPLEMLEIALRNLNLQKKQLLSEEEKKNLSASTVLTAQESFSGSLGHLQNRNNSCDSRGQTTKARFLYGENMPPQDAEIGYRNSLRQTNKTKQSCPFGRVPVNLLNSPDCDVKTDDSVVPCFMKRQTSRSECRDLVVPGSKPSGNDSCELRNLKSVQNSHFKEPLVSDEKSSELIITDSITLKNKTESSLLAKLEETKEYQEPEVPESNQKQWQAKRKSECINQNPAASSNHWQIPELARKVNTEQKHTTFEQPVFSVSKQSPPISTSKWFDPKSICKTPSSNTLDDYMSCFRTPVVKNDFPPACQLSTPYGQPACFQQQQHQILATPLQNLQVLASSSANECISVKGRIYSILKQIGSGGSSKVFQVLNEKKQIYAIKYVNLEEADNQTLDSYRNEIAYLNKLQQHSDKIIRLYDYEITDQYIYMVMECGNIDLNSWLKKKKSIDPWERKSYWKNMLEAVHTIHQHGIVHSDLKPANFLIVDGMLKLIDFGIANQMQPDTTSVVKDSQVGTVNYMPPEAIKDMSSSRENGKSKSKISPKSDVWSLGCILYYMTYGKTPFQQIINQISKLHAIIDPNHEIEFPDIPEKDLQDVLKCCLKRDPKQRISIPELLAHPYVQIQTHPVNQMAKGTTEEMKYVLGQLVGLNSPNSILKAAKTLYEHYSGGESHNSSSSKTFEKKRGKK
Chain of Serine/threonine-protein kinase haspin (Homo sapiens) (Q8TF76 whole entry, the tested form may be a part): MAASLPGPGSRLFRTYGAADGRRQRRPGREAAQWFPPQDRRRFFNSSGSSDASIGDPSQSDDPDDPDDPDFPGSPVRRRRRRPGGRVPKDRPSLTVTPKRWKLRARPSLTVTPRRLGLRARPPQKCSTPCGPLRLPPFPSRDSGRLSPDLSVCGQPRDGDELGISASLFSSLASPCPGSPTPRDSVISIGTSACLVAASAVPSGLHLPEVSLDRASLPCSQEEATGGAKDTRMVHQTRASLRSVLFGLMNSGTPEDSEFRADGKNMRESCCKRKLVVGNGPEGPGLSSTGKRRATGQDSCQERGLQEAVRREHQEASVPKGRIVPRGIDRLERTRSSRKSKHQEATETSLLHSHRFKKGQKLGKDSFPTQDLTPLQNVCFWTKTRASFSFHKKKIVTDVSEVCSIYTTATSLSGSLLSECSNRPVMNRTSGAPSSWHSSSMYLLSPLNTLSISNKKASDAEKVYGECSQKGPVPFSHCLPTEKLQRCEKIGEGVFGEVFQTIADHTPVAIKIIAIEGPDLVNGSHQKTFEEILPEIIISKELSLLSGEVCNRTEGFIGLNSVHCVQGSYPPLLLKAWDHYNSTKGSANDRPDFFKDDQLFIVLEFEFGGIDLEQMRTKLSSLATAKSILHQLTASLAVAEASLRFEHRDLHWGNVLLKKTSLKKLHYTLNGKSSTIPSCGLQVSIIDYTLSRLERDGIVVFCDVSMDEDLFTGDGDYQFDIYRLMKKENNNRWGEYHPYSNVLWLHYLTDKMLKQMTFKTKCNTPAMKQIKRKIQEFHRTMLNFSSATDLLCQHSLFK
Chain of Dual specificity mitogen-activated protein kinase kinase 3 (Homo sapiens) (P46734 whole entry): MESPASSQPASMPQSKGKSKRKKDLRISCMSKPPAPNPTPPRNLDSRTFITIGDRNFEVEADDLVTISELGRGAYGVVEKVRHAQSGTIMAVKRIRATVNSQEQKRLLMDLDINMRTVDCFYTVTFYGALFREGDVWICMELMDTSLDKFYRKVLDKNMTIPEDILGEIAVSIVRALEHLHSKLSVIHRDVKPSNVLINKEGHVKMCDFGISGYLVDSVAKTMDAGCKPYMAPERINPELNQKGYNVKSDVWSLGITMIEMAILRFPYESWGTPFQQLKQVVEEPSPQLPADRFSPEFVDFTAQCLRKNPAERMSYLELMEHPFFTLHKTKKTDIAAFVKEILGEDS
Chain of Dual specificity tyrosine-phosphorylation-regulated kinase 3 (Homo sapiens) (O43781 whole entry, the tested form may be a part): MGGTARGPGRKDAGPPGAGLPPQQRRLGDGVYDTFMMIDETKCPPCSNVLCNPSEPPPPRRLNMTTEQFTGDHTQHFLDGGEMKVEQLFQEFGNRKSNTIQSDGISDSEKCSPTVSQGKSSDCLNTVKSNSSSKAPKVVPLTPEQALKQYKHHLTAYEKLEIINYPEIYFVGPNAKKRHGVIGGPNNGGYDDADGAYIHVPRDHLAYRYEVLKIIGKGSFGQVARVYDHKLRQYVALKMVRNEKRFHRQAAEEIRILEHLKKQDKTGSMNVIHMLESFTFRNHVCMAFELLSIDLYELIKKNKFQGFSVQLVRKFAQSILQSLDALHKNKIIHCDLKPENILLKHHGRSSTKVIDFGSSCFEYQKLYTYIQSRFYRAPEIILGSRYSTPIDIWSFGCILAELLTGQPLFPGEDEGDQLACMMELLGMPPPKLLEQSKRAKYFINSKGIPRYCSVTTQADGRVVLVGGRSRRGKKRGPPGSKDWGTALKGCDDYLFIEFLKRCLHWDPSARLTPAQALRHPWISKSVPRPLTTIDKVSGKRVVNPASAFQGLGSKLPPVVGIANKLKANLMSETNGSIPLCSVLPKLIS
Chain of RAC-gamma serine/threonine-protein kinase (Homo sapiens), Q9Y243 [S472D] (Q9Y243 whole entry S472D): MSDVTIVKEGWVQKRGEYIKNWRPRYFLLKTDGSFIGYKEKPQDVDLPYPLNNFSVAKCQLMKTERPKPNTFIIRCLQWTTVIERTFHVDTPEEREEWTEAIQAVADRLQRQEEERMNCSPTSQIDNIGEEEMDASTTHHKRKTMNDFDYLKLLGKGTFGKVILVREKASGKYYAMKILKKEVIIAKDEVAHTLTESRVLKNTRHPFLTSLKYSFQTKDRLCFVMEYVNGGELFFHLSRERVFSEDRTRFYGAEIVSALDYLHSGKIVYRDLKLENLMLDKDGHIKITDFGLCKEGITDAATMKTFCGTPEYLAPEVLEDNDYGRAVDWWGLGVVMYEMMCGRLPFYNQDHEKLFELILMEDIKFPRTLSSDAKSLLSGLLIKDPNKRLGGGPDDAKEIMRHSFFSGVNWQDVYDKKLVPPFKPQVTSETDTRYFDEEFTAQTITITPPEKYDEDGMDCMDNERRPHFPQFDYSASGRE
Chain of Activin receptor type-1 (Homo sapiens) (Q04771 whole entry): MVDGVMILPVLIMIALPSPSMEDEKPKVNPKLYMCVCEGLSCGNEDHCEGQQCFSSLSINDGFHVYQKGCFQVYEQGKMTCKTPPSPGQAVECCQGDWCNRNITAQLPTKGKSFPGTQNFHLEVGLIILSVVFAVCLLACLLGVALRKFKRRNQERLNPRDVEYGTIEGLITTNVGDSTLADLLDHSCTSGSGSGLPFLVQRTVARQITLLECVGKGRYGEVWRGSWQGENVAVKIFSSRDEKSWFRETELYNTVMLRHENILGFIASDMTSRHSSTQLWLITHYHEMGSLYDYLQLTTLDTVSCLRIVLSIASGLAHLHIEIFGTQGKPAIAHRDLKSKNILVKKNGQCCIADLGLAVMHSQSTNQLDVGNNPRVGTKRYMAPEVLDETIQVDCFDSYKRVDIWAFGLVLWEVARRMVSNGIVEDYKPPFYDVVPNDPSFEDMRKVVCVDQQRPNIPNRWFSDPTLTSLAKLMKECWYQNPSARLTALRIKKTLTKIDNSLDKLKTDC
Chain of Serine/threonine-protein kinase Nek11 (Homo sapiens) (Q8NG66 whole entry): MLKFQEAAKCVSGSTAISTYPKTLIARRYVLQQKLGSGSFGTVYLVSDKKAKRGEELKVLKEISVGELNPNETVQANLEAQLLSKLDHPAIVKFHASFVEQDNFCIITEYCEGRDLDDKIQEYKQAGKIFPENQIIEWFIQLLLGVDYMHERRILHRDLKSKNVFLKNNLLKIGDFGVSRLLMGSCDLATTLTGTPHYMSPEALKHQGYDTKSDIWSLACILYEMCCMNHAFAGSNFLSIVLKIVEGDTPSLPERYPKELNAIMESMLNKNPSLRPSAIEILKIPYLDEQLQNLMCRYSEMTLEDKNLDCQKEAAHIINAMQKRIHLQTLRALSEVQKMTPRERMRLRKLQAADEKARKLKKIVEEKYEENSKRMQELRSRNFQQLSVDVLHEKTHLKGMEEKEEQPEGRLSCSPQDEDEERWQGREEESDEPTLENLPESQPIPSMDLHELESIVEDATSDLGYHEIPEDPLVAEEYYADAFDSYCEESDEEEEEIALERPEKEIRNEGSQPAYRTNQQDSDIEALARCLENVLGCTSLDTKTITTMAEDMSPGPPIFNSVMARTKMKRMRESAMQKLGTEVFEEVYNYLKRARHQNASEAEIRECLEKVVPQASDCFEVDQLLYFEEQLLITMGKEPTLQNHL
Chain of Serine/threonine-protein kinase ULK3 (Homo sapiens) (Q6PHR2 whole entry): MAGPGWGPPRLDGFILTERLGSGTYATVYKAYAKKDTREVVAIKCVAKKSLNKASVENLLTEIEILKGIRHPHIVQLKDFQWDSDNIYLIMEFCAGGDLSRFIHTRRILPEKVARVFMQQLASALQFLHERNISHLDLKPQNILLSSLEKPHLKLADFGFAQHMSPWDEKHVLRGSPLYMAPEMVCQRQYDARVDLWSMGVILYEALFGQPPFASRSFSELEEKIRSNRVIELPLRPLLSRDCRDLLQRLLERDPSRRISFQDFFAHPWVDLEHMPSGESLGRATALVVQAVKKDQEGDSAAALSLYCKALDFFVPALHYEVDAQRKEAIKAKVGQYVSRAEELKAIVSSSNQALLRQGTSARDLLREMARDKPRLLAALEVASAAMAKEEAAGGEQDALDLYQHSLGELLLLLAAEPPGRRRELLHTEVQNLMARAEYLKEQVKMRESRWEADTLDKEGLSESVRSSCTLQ
Chain of Serine/threonine-protein kinase 16 (Homo sapiens) (O75716 whole entry): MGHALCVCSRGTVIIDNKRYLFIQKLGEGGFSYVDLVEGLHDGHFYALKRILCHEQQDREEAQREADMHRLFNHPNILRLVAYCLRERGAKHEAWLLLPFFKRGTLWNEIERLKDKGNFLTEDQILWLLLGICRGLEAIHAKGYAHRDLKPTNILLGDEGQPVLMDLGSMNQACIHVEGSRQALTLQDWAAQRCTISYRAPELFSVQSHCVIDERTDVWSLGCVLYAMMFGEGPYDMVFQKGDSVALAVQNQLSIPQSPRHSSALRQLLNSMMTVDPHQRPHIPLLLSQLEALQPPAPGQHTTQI

Structure (SMILES) | Activity [1] [%] | Activity [2] [%] | Activity [3] [%] | Activity [4] [%] | Activity [5] [%] | Activity [6] [%] | Activity [7] [%] | Activity (Homo sapiens [8]) [%] | Activity [9] [%] | Activity [10] [%] | Activity [11] [%] | Activity [12] [%] | Activity [13] [%] | Activity [14] [%] | Activity [15] [%] | Activity [16] [%] | Activity [17] [%] | Activity [18] [%] | Activity [19] [%] | Activity [20] [%] | also measured
N=C1NC(=O)/C(=C\c2ccc(-c3cccc([N+](=O)[O-])c3)o2)S1 | 101 | 57 | 99 | 76 | 100 | 59 | 82 | 97 | 82 | 83 | 114 | 55 | 100 | 80 | 100 | 97 | 95 | 102 | 98 | 100 | Activity (Homo sapiens [21]): 100%; Activity [22]: 99%
C=CCOC(=O)c1cc(-c2ccc(/C=C3/NC(=S)NC3=O)o2)ccc1Cl | 105 | 87 | 106 | 104 | 92 | 87 | 95 | 101 | 101 | 90 | 96 | 62 | 72 | 100 | 100 | 92 | 90 | 86 | 92 | 99 | Activity (Homo sapiens [21]): 85%; Activity [22]: 98%
